# In US11566007B2, “Ras inhibitors” (Revolution Medicines, Inc., priority 2019, dated 2023):
# Tests used:
# [1] = test system: NCI-H358 cells (K-Ras G12C); test: Potency assay: pERK in NCI-H358 cells; type: cell-based, human; details: Homo sapiens, NCI-H358; H358 KRAS G12C; read-out: pERK EC50
# How it was run: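 4 h cpd, 37 °C; 10-pt 3-fold series, 10 mM DMSO top stock, duplicates. Readout pERK: AlphaLISA SureFire Ultra or In-Cell Western (IR-800CW secondary, DRAQ5 DNA stain). IC50, 4-PL fit vs log conc.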
# [2] = target: NRAS WT (Homo sapiens (Human), UniProt P01111+P62937); test: Ras-Raf (BRAF RBD) disruption / FRET / MOA assay, NRAS WT; type: biochemical; details: read-out: IC50* NRAS WT FRET data
# How it was run: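 Compounds (30 μM top final, 10-point 3-fold dilutions) incubated 3 h at 25° C with nucleotide-loaded Ras, cyclophilin A and BRAF RBD. Detection with 10 nM anti-His Eu-W1024 and 50 nM anti-GST allophycocyanin over another 1.5 h. Lowered TR-FRET ratio relative to DMSO wells gives IC50.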
# Chain of NRAS WT (P01111 whole entry): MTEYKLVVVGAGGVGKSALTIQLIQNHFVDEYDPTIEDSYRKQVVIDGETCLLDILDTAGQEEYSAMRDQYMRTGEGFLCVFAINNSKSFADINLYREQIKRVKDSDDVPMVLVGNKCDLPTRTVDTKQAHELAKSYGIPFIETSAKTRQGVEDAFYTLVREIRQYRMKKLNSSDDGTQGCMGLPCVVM
# Chain of NRAS WT (P62937 whole entry): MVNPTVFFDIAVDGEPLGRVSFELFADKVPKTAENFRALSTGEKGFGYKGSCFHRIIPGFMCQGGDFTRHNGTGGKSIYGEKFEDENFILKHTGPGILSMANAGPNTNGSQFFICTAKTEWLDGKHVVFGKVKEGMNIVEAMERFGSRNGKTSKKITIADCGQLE
Compound,EC50 [1] [µM],IC50 [2] [µM]
"CCn1c(-c2cccnc2[C@H](C)OC)c2c3cc(ccc31)-c1csc(n1)C[C@H](NC(=O)[C@@H](COC1CN(C(=O)C#CC(C)(C)N(C)C)C1)C(C)C)C(=O)N1CCC[C@H](N1)C(=O)OCC(C)(C)C2 (atropisomer, axis not shown) [Example A721]",< 5,1 to 10
"C=CC(=O)N1CC2(CCN2C(=O)N(C)[C@H](C(=O)N[C@H]2Cc3nc(cs3)-c3ccc4c(c3)c(c(-c3cccnc3[C@H](C)OC)n4CC)CC(C)(C)COC(=O)[C@@H]3CCCN(N3)C2=O)C(C)C)C1 (atropisomer, axis not shown) [Example A407]",< 5,0.01 to 0.1
"C=CC(=O)N1CC[C@H](C(=O)N2CC[C@H](C)[C@H]2C(=O)N[C@H]2Cc3cccc(c3)-c3ccc4c(c3)c(c(-c3cccnc3[C@H](C)OC)n4CC)CC(C)(C)COC(=O)[C@@H]3CCCN(N3)C2=O)C1 (atropisomer, axis not shown) [Example A494]",< 5,1 to 10
"CO[C@@H](C)c1ncccc1-c1c2c3cc(ccc3n1CC(F)(F)F)-c1cccc(c1)C[C@H](NC(=O)[C@H](C(C)C)N(C)C(=O)[C@H]1CCN(C(=O)C#CC(C)(C)N(C)C)C1)C(=O)N1CCC[C@H](N1)C(=O)OCC(C)(C)C2 (atropisomer, axis not shown) [Example A727]",< 5,1 to 10
"C=CC(=O)N1CC[C@H](C(=O)N2CCCCC[C@H]2C(=O)N[C@H]2Cc3cccc(c3)-c3ccc4c(c3)c(c(-c3cccnc3[C@H](C)OC)n4CC)CC(C)(C)COC(=O)[C@@H]3CCCN(N3)C2=O)C1 (atropisomer, axis not shown) [Example A496]",< 5,1 to 10
"CO[C@@H](C)c1ncccc1-c1c2c3cc(ccc3n1CC(F)(F)F)-c1csc(n1)C[C@H](NC(=O)[C@@H](COC1CN(C(=O)C#CC(C)(C)N(C)C)C1)C(C)C)C(=O)N1CCC[C@H](N1)C(=O)OCC(C)(C)C2 (atropisomer, axis not shown) [Example A343]",< 5,1 to 10
"CCn1c(-c2cccnc2[C@H](C)OC)c2c3cc(ccc31)-c1cccc(c1)C[C@H](NC(=O)[C@@H](CO[C@H]1CCN(C(=O)C#CC(C)(C)N(C)C)C1)C(C)C)C(=O)N1CCC[C@H](N1)C(=O)OCC(C)(C)C2 (atropisomer, axis not shown) [Example A585]",< 5,1 to 10
"C=CC(=O)N1CC[C@H]2[C@@H]1CN2C(=O)N(C)[C@H](C(=O)N[C@H]1Cc2nc(cs2)-c2ccc3c(c2)c(c(-c2cccnc2[C@H](C)OC)n3CC)CC(C)(C)COC(=O)[C@@H]2CCCN(N2)C1=O)C(C)C (atropisomer, axis not shown) [Example A547]",< 5,0.1 to 1
"CCn1c(-c2cccnc2[C@H](C)OC)c2c3cc(ccc31)-c1cccc(c1)C[C@H](NC(=O)[C@@H](COC1CN(C(=O)C#CC(C)(C)N(C)C(C)C)C1)C(C)C)C(=O)N1CCC[C@H](N1)C(=O)OCC(C)(C)C2 (atropisomer, axis not shown) [Example A599]",< 5,> 10
"CCn1c(-c2cccnc2[C@H](C)OC)c2c3cc(ccc31)-c1cccc(c1)C[C@H](NC(=O)[C@H](C(C)C)N(C)C(=O)[C@H]1CCN(C(=O)C#CC(C)(C)N(C)C)C1)C(=O)N1CCC[C@H](N1)C(=O)OCC(C)(C)C2 (atropisomer, axis not shown) [Example A290]",< 5,1 to 10
"CCn1c(-c2cccnc2[C@H](C)OC)c2c3cc(ccc31)-c1cccc(n1)C[C@H](NC(=O)[C@H](C(C)C)N(C)C(=O)N1CCC13CN(C(=O)C#CC(C)(C)N(C)C)C3)C(=O)N1CCC[C@H](N1)C(=O)OCC(C)(C)C2 (atropisomer, axis not shown) [Example A623]",< 5,1 to 10
"C=CC(=O)Nc1ncc(C(=O)N(C)[C@H](C(=O)N[C@H]2Cc3cccc(c3)-c3ccc4c(c3)c(c(-c3cccnc3[C@H](C)OC)n4CC)CC(C)(C)COC(=O)[C@@H]3CCCN(N3)C2=O)C(C)C)n1C (atropisomer, axis not shown) [Example A474]",< 5,1 to 10
"CCn1c(-c2cccnc2[C@H](C)OC)c2c3cc(ccc31)C1=CCCN(C1)C[C@H](NC(=O)[C@H](C(C)C)N(C)C(=O)C1(F)CCN(C(=O)C#CC(C)(C)N(C)C)CC1)C(=O)N1CCC[C@H](N1)C(=O)OCC(C)(C)C2 (atropisomer, axis not shown) [Example A591]",< 5,0.1 to 1
"C=CC(=O)N1CC[C@]2(C1)OCN([C@H](C(=O)N[C@H]1Cc3cccc(n3)-c3ccc4c(c3)c(c(-c3cccnc3[C@H](C)OC)n4CC)CC(C)(C)COC(=O)[C@@H]3CCCN(N3)C1=O)C(C)C)C2=O (atropisomer, axis not shown) [Example A652]",< 5,1 to 10
"CO[C@@H](C)c1ncccc1-c1c2c3cc(ccc3n1CC(F)(F)F)-c1cccc(c1)C[C@H](NC(=O)[C@@H](COC1CN(C(=O)C#CC3(C)OCCO3)C1)C(C)C)C(=O)N1CCC[C@H](N1)C(=O)OCC(C)(C)C2 (atropisomer, axis not shown) [Example A703]",< 5,1 to 10
"C=CS(=O)(=O)N1CCC2(CCN([C@H](C(=O)N[C@H]3Cc4cc(O)cc(c4)-c4ccc5c(c4)c(c(-c4cccnc4[C@H](C)OC)n5CC)CC(C)(C)COC(=O)[C@@H]4CCCN(N4)C3=O)C(C)C)C2=O)CC1 (atropisomer, axis not shown) [Example A299]",< 5,0.01 to 0.1
"CO[C@@H](C)c1ncccc1-c1c2c3cc(ccc3n1CC(F)(F)F)N1CCO[C@@H](C[C@H](NC(=O)[C@H](C(C)C)N3CC[C@]4(CCN(C(=O)C#CC(C)(C)N(C)C)C4)C3=O)C(=O)N3CCC[C@H](N3)C(=O)OCC(C)(C)C2)C1 (atropisomer, axis not shown) [Example A642]",< 5,1 to 10
"CO[C@@H](C)c1ncccc1-c1c2c3cc(ccc3n1CC(F)(F)F)-c1nc(co1)C[C@H](NC(=O)[C@H](C(C)C)N(C)C(=O)C1(F)CCN(C(=O)C#CC(C)(C)N(C)C)CC1)C(=O)N1CCC[C@H](N1)C(=O)OCC(C)(C)C2 (atropisomer, axis not shown) [Example A578]",< 5,0.1 to 1
C=CC(=O)N1CC[C@H](C(=O)N(C)[C@H](C(=O)N[C@H]2C[C@H]3CN(CCO3)c3ccc4c(c3)c(c(-c3cccnc3COC)n4CC)CC(C)(C)COC(=O)[C@@H]3CCCN(N3)C2=O)C(C)C)C1 [Example A240],< 5,> 10
"C=CC(=O)N1CC[C@H](C(=O)N(C)[C@H](C(=O)N[C@H]2Cc3cc(cc(C(F)F)c3)-c3ccc4c(c3)c(c(-c3cc(N5CCN(C)CC5)cnc3[C@H](C)OC)n4CC(F)(F)F)CC(C)(C)COC(=O)[C@@H]3CCCN(N3)C2=O)C(C)C)C1 (atropisomer, axis not shown) [Example A357]",< 5,0.1 to 1
"CCn1c(-c2cccnc2[C@H](C)OC)c2c3cc(ccc31)N1CCO[C@@H](C[C@H](NC(=O)[C@H](C(C)C)N(C)C(=O)C3(F)CCN(C(=O)C#CC(C)(C)N(C)C)CC3)C(=O)N3CCC[C@H](N3)C(=O)OCC(C)(C)C2)C1 (atropisomer, axis not shown) [Example A647, 1-(4-(dimethylamino)-4-methylpent-2-ynoyl)-N-((2S)-1-(((2^2S,6^3S,4S)-1^1-ethyl-1^2-(2-((S)-1-methoxyethyl)pyridin-3-yl)-10,10-dimethyl-5,7-dioxo-6^1,6^2,6^3,6^4,6^5,6^6-hexahydro-1^1H-8-oxa-2(4,2)-morpholina-1(5,3)-indola-6(1,3)-pyridazinacycloundecaphane-4-yl)amino)-3-methyl-1-oxobutan-2-yl)-4-fluoro-N-methylpiperidine-4-carboxamide]",< 5,0.1 to 1
"CCn1c(-c2cccnc2[C@H](C)OC)c2c3cc(ccc31)-c1cccc(c1)C[C@H](NC(=O)[C@H](C(C)C)N1CC[C@]3(CCN(C(=O)C#C[C@@]4(N(C)C)CCOC4)C3)C1=O)C(=O)N1CCC[C@H](N1)C(=O)OCC(C)(C)C2 (atropisomer, axis not shown) [Example A560]",< 5,1 to 10
"CCn1c(-c2cccnc2[C@H](C)OC)c2c3cc(ccc31)-c1cc(F)cc(c1)C[C@H](NC(=O)[C@@H](COC1CN(C(=O)C#CC(C)(C)N(C)C)C1)C(C)C)C(=O)N1CCC[C@H](N1)C(=O)OCC(C)(C)C2 (atropisomer, axis not shown) [Example A403]",< 5,> 10
"CCn1c(-c2cccnc2[C@H](C)OC)c2c3cc(ccc31)-c1cccc(c1)C[C@H](NC(=O)[C@H](C(C)C)N1CC[C@]3(CCN(C(=O)C#CC(C)(C)N(C)C)C3)C1=O)C(=O)N1CCC[C@H](N1)C(=O)OCC(C)(C)C2 (atropisomer, axis not shown) [Example A534, (2S)-2-((S)-7-(4-(dimethylamino)-4-methylpent-2-ynoyl)-1-oxo-2,7-diazaspiro[4.4]nonan-2-yl)-N-((6^3S,4S)-1^1-ethyl-1^2-(2-((S)-1-methoxyethyl)pyridin-3-yl)-10,10-dimethyl-5,7-dioxo-6^1,6^2,6^3,6^4,6^5,6^6-hexahydro-1^1H-8-oxa-1(5,3)-indola-6(1,3)-pyridazina-2(1,3)-benzenacycloundecaphane-4-yl)-3-methylbutanamide]",< 5,1 to 10
"CCn1c(-c2cccnc2[C@H](C)OC)c2c3cc(ccc31)-c1csc(n1)C[C@H](NC(=O)[C@H](C(C)C)N(C)C(=O)N(C)C1CN(C(=O)/C=C/C3CN(C)C3)C1)C(=O)N1CCC[C@H](N1)C(=O)OCC(C)(C)C2 (atropisomer, axis not shown) [Example A690]",< 5,0.1 to 1
